Measured values taken from patent US11596939B2, “Lamp component distribution in a microfluid cell” (priority 2017, dated 2023).

Columns and labels:
LAMP reaction [1] = assay: ProClin950 in BlisterBuffer, effect on LAMP reaction; assay type: biochemical; details: added to BlisterBuffer
From the text: Additionally, we added ProClin950 a biozide to the BlisterBuffer in order to inhibit microbial growth.

target DNA = assay: Sample pre-treatment with antimicrobial peptides before isothermal amplification; details: sample pre-treatment with peptide
LAMP reaction [2] = assay: Effect of antimicrobial peptides on the amplification (LAMP) reaction; assay type: biochemical
From the text: The use of peptides with higher concentrations may inhibit the amplification reaction in certain extent in comparison of ideal conditions, e.g. pure water (MQ). This is a drawback of use of peptides. However, not all the peptides have an equal effect.
This effect is explained by secondary property of peptides, which is an anti-inhibitory effect. Meaning, that in additionally to lysis effect, peptides also neutralizing inhibitory substances in real samples.

Compound | increase in isothermal amplification efficiency (target DNA) | other results
Cn1sccc1=O [ProClin950, 2-Methyl-4-isothiazolin-3-one] |  | inhibition of the LAMP reaction (LAMP reaction [1]): did not inhibit
CC[C@H](C)[C@H](NC(=O)CN)C(=O)NCC(=O)N[C@@H](C)C(=O)N[C@H](C(=O)N[C@@H](CC(C)C)C(=O)N[C@@H](CCCCN)C(=O)N[C@H](C(=O)N[C@@H](CC(C)C)C(=O)N[C@H](C(=O)N[C@H](C(=O)NCC(=O)N[C@@H](CC(C)C)C(=O)N1CCC[C@H]1C(=O)N[C@@H](C)C(=O)N[C@@H](CC(C)C)C(=O)N[C@H](C(=O)N[C@@H](CO)C(=O)N[C@@H](Cc1c[nH]c2ccccc12)C(=O)N[C@H](C(=O)N[C@@H](CCCCN)C(=O)N[C@@H](CCCNC(=N)N)C(=O)N[C@@H](CCCCN)C(=O)N[C@@H](CCCNC(=N)N)C(=O)N[C@@H](CCC(N)=O)C(=O)N[C@@H](CCC(N)=O)C(N)=O)[C@@H](C)CC)[C@@H](C)CC)[C@@H](C)O)[C@@H](C)O)C(C)C)C(C)C [melittin, Melittin] | did not give significant increase | 
Cecropin P1 (SWLSKTAKKLENSAKKRISEGIAIAIQGGPR; Cecropin P1; listed as Ascaris suum) |  | inhibitory effect on the amplification reaction (LAMP reaction [2]; among current selection of peptides, compared with pure water (MQ)): lowest inhibitory effect; effect on amplification in urinary sample (LAMP reaction [2]; in comparison of pure urinary sample): enhancing effect; increase of the target DNA available for the isothermal amplification (target DNA; on average): 6 times
MSI-78 | did not give significant increase | 
MSI-594 | did not give significant increase | 
bombolitin III | did not give significant increase | 
